# According to patent publication US6124380A, “Metal containing e-coat catalysts optionally with tin catalysts” (priority 1999, dated 2000):
# How the values were obtained:
# [1] = tested on: Flathead Minnow; experiment: Aquatic Toxicity Flathead Minnow; type: in vivo
# Description: (§1) Generally, the toxicity of tin compounds increases as the organic substituents on the tin atom increase from one to two to three whereas there is a decrease in toxicity with increasing alkyl chain length where the organotin compound is alkyl substituted. However, the extraordinary decrease in toxicity in TOTO due to alkyl chain length is quite unexpected. The relatively low toxicity of TOTO which makes it especially suitable in industrial coating applications is illustrated by the following: […]
# [2] = tested on: Daphnia; experiment: Aquatic Toxicity Daphnia; type: in vivo
# Description: as §1
# [3] = Toxicity of TOTO compared with TBTO; conditions: in vivo
# Description: as §1
# [4] = tested on: Rabbits; experiment: Primary Eye Irritation; type: in vivo
# Description: as §1
# [5] = tested on: Rats; experiment: Acute Oral toxicity; type: in vivo
# Description: as §1
# [6] = Acute Dermal toxicity; type: in vivo
# Description: as §1
# [7] = tested on: Rabbits; experiment: Primary Dermal Irritation; type: in vivo
# Description: as §1
# [8] = tested on: Salmonella and E. Coli; experiment: Mutation Assays Ames/Salmonella and E. Coli; type: cell-based
# Description: as §1
SMILES,"Aquatic Toxicity 96 h LC50 Flathead Minnow (comment, TBTO) [1] [µg/mL]","Aquatic Toxicity 48 h LC50 Daphnia (comment, TBTO) [2] [µg/mL]",Toxicity relative to TBTO [3],"Primary Eye Irritation, comment ([4]; rabbits)","Primary Eye Irritation ([4]; score out of 110.0, rabbits)",Acute Oral LD50 [5] [mg/kg],"Acute Oral, comment [5]",Aquatic Toxicity 96 h LC50 Flathead Minnow ([1]; solubility limit),"Acute Dermal, comment ([6]; No more than Slightly)","Acute Dermal LD50 ([6]; in vivo, topical or ocular) [mg/kg]","Primary Dermal Irritation, comment ([7]; rabbits)","Primary Dermal Irritation ([7]; score out of 8.0, rabbits)",Mutation Assays [8],Aquatic Toxicity 48 h LC50 Daphnia ([2]; solubility limit)
"CCC[CH2][Sn]([CH2]CCC)([CH2]CCC)[O][Sn]([CH2]CCC)([CH2]CCC)[CH2]CCC [TBTO, Bis(tributyltin) oxide]",0.05,0.002,–,–,–,–,–,–,–,–,–,–,–,–
"CCCCCCC[CH2][Sn]([CH2]CCCCCCC)([CH2]CCCCCCC)[O][Sn]([CH2]CCCCCCC)([CH2]CCCCCCC)[CH2]CCCCCCC [TOTO, Bis(trioctyltin)oxide]",–,–,significantly less toxic than TBTO,Slightly Irritating,2.6,> 5000,Practically Nontoxic,"> 13,500 ug/L",Slightly,> 2000,Slightly Irritating,1.75,Not Mutagenic,"> 87,000 ug/L"
